Results taken from patent publication US20220324835A1 (Nurix Therapeutics, Inc., priority 2018, published 2022).

Key:
Format in all cases: cell-based
[1] = system: primary human total T-cells; experiment: T-cell activation assessed by CD69 expression
Method in brief: (§1)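 Primary human T-cells (>95% CD3+, negative selection from PBMC) were pre-incubated with inhibitor (e.g. 10, 1.11, 0.123 μM; DMSO <0.1%) for 1 h at 37 °C. They were then stimulated 48 h with plate-bound OKT3 (coated at 10 μg/mL), alone or with 5 μg/mL soluble anti-CD28. Results are fold change over uninhibited, identically stimulated cells.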

[2] = system: primary human total T-cells; experiment: T-cell activation assessed by cell proliferation (Cell Trace Violet)
Method in brief: as §1

[3] = system: primary human total T-cells; experiment: T-cell activation assessed by cytokine secretion (GM-CSF, IFNγ, TNFα)
Method in brief: as §1

[4] = CD3/CD28 stimulation, CD4 T-cells, read-out: % CD69+ (CD4)
[5] = CD3/CD28 stimulation, CD8 T-cells, read-out: % CD69+ (CD8)
[6] = CD3 alone stimulation, CD4 T-cells, read-out: % CD69+ (CD4)
[7] = CD3 alone stimulation, CD8 T-cells, read-out: % CD69+ (CD8)
[8] = CD3/CD28 stimulation, CD4 T-cells, read-out: % CP (cell proliferation) (CD4)
[9] = CD3/CD28 stimulation, CD8 T-cells, read-out: % CP (cell proliferation) (CD8)
[10] = CD3 alone stimulation, CD8 T-cells, read-out: % CP (cell proliferation) (CD8)
[11] = CD3/CD28 stimulation, read-out: GM-CSF secretion
[12] = CD3/CD28 stimulation, read-out: IFNγ secretion
[13] = CD3/CD28 stimulation, read-out: TNFα secretion
[14] = CD3 alone stimulation, read-out: GM-CSF secretion
[15] = CD3 alone stimulation, read-out: IFNγ secretion
[16] = CD3 alone stimulation, read-out: TNFα secretion

In the case of `Cn1cnnc1C(F)(F)[C@](C)(F)c1cccc(N2Cc3c(cc(CN4CC[C@@H](F)C4)cc3C(F)(F)F)C2=O)c1` [Compound 450], the fold induction at 1.11 µM [1, 4] is reported as 1.2 to 1.4, the fold induction at 10 µM [1, 4] is reported as 1.4 to 1.6 and the fold induction at 1.11 µM [1, 5] is reported as 1.2 to 1.4. It also gave a fold induction at 10 µM [1, 5] of 1.2 to 1.4, a fold induction at 1.11 µM [1, 6] of 1.4 to 1.6 and a fold induction at 10 µM [1, 6] of over 1.6. It also gave a fold induction at 1.11 µM [1, 7] of 1.2 to 1.4, a fold induction at 10 µM [1, 7] of 1.4 to 1.6 and a fold induction at 1.11 µM [2, 8] of over 4. For the same molecule, the fold induction at 10 µM [2, 8] was over 4, the fold induction at 1.11 µM [2, 9] was 2.01 to 3 and the fold induction at 10 µM [2, 9] was over 4. The fold induction at 1.11 µM [2, 10] was over 4, the fold induction at 10 µM [2, 10] was over 4 and the fold induction at 1.11 µM [3, 11] was 2.01 to 4. The fold induction at 1.11 µM [3, 12] was 2.01 to 3, the fold induction at 1.11 µM [3, 13] was 2.01 to 4 and the fold induction at 10 µM [3, 11] was over 4. It also gave a fold induction at 10 µM [3, 12] of over 4, a fold induction at 10 µM [3, 13] of 2.01 to 4 and a fold induction at 1.11 µM [3, 14] of 1.51 to 2. It also gave a fold induction at 1.11 µM [3, 15] of under 2, a fold induction at 1.11 µM [3, 16] of 1.51 to 2 and a fold induction at 10 µM [3, 14] of 2.01 to 4. For the same molecule, the fold induction at 10 µM [3, 15] was under 2 and the fold induction at 10 µM [3, 16] was 1.51 to 2.
`COC1CN(Cc2cc3c(c(C(F)(F)F)c2)CN(c2cccc([C@@](C)(F)C(F)(F)c4nncn4C)c2)C3=O)C1` [Compound 452, (R)-6-((3-methoxyazetidin-1-yl)methyl)-2-(3-(1,1,2-trifluoro-1-(4-methyl-4H-1,2,4-triazol-3-yl)propan-2-yl)phenyl)-4-(trifluoromethyl)isoindolin-1-one] gave a fold induction at 1.11 µM [1, 4] of 1.2 to 1.4, a fold induction at 10 µM [1, 4] of 1.4 to 1.6 and a fold induction at 1.11 µM [1, 5] of 1.2 to 1.4. The fold induction at 10 µM [1, 5] was 1.2 to 1.4, the fold induction at 1.11 µM [1, 6] was 1.4 to 1.6 and the fold induction at 10 µM [1, 6] was over 1.6. For the same molecule, the fold induction at 1.11 µM [1, 7] was 1.2 to 1.4, the fold induction at 10 µM [1, 7] was 1.4 to 1.6 and the fold induction at 1.11 µM [2, 8] was over 4. The fold induction at 10 µM [2, 8] was over 4, the fold induction at 1.11 µM [2, 9] was 3.01 to 4 and the fold induction at 10 µM [2, 9] was over 4. The fold induction at 1.11 µM [2, 10] was 3.01 to 4, the fold induction at 10 µM [2, 10] was over 4 and the fold induction at 1.11 µM [3, 11] was 2.01 to 4. The fold induction at 1.11 µM [3, 12] was under 2, the fold induction at 1.11 µM [3, 13] was 1.51 to 2 and the fold induction at 10 µM [3, 11] was 2.01 to 4. For the same molecule, the fold induction at 10 µM [3, 12] was 2.01 to 3, the fold induction at 10 µM [3, 13] was 2.01 to 4 and the fold induction at 1.11 µM [3, 14] was 1.51 to 2. The fold induction at 1.11 µM [3, 15] was 3.01 to 4, the fold induction at 1.11 µM [3, 16] was at most 1.5 and the fold induction at 10 µM [3, 14] was 2.01 to 4. The fold induction at 10 µM [3, 15] was 3.01 to 4 and the fold induction at 10 µM [3, 16] was 1.51 to 2.
Work on `Cn1cnnc1C(F)(F)[C@](C)(F)c1cccc(N2Cc3c(cc(CN4CC[C@@H](C#N)C4)cc3C(F)(F)F)C2=O)c1` [Compound 455, (R)-1-((3-oxo-2-(3-((R)-1,1,2-trifluoro-1-(4-methyl-4H-1,2,4-triazol-3-yl)propan-2-yl)phenyl)-7-(trifluoromethyl)isoindolin-5-yl)methyl)pyrrolidine-3-carbonitrile] yielded a fold induction at 1.11 µM [1, 4] of 1.2 to 1.4, a fold induction at 10 µM [1, 4] of 1.4 to 1.6 and a fold induction at 1.11 µM [1, 5] of 1.2 to 1.4. For the same molecule, the fold induction at 10 µM [1, 5] was 1.2 to 1.4, the fold induction at 1.11 µM [1, 6] was 1.4 to 1.6 and the fold induction at 10 µM [1, 6] was over 1.6. The fold induction at 1.11 µM [1, 7] was 1.2 to 1.4, the fold induction at 10 µM [1, 7] was 1.4 to 1.6 and the fold induction at 1.11 µM [2, 8] was over 4. The fold induction at 10 µM [2, 8] was over 4, the fold induction at 1.11 µM [2, 9] was 3.01 to 4 and the fold induction at 10 µM [2, 9] was over 4. It also gave a fold induction at 1.11 µM [2, 10] of over 4, a fold induction at 10 µM [2, 10] of over 4 and a fold induction at 1.11 µM [3, 11] of 2.01 to 4. For the same molecule, the fold induction at 1.11 µM [3, 12] was over 4, the fold induction at 1.11 µM [3, 13] was 2.01 to 4 and the fold induction at 10 µM [3, 11] was over 4. It also gave a fold induction at 10 µM [3, 12] of over 4, a fold induction at 10 µM [3, 13] of 2.01 to 4 and a fold induction at 1.11 µM [3, 14] of 1.51 to 2. It also gave a fold induction at 1.11 µM [3, 15] of 2.01 to 3, a fold induction at 1.11 µM [3, 16] of at most 1.5 and a fold induction at 10 µM [3, 14] of 2.01 to 4. It also gave a fold induction at 10 µM [3, 15] of 3.01 to 4 and a fold induction at 10 µM [3, 16] of 2.01 to 4.
For `C[C@H](Cc1nncn1C)c1cccc(NC(=O)c2cc3cc(N4CCNCC4)ccc3cn2)c1` [Compound 472, N-{3-[(2R)-1-(4-methyl-4H-1,2,4-triazol-3-yl)propan-2-yl]phenyl}-6-(piperazin-1-yl)isoquinoline-3-carboxamide], the fold induction at 1.11 µM [1, 4] was 1.2 to 1.4, the fold induction at 10 µM [1, 4] was 1.4 to 1.6 and the fold induction at 1.11 µM [1, 5] was at most 1.2. The fold induction at 10 µM [1, 5] was 1.2 to 1.4, the fold induction at 1.11 µM [1, 6] was 1.4 to 1.6 and the fold induction at 10 µM [1, 6] was 1.4 to 1.6. It also gave a fold induction at 1.11 µM [1, 7] of at most 1.2, a fold induction at 10 µM [1, 7] of 1.2 to 1.4 and a fold induction at 1.11 µM [2, 8] of 3.01 to 4. The fold induction at 10 µM [2, 8] was over 4, the fold induction at 1.11 µM [2, 9] was 2.01 to 3 and the fold induction at 10 µM [2, 9] was 2.01 to 3. It also gave a fold induction at 1.11 µM [2, 10] of 2.01 to 3, a fold induction at 10 µM [2, 10] of under 2 and a fold induction at 1.11 µM [3, 11] of 1.51 to 2. For the same molecule, the fold induction at 1.11 µM [3, 12] was under 2, the fold induction at 1.11 µM [3, 13] was 1.51 to 2 and the fold induction at 10 µM [3, 11] was 2.01 to 4. For the same molecule, the fold induction at 10 µM [3, 12] was under 2, the fold induction at 10 µM [3, 13] was 1.51 to 2 and the fold induction at 1.11 µM [3, 14] was 1.51 to 2. It also gave a fold induction at 1.11 µM [3, 15] of under 2, a fold induction at 1.11 µM [3, 16] of at most 1.5 and a fold induction at 10 µM [3, 14] of 1.51 to 2. The fold induction at 10 µM [3, 15] was under 2 and the fold induction at 10 µM [3, 16] was at most 1.5.
For `Cn1cnnc1CC1(c2cccc(N3Cc4c(cc(CN5CCC6(CC6)C5)cc4C(F)(F)F)C3=O)c2)COC1` [Compound 520, 6-((5-azaspiro[2.4]heptan-5-yl)methyl)-2-(3-(3-((4-methyl-4H-1,2,4-triazol-3-yl)methyl)oxetan-3-yl)phenyl)-4-(trifluoromethyl)isoindolin-1-one], the fold induction at 1.11 µM [1, 4] was over 1.6, the fold induction at 10 µM [1, 4] was over 1.6 and the fold induction at 1.11 µM [1, 5] was 1.2 to 1.4. The fold induction at 10 µM [1, 5] was 1.2 to 1.4, the fold induction at 1.11 µM [1, 6] was over 1.6 and the fold induction at 10 µM [1, 6] was over 1.6. The fold induction at 1.11 µM [1, 7] was 1.4 to 1.6, the fold induction at 10 µM [1, 7] was 1.4 to 1.6 and the fold induction at 1.11 µM [2, 8] was over 4. It also gave a fold induction at 10 µM [2, 8] of over 4, a fold induction at 1.11 µM [2, 9] of over 4 and a fold induction at 10 µM [2, 9] of over 4. The fold induction at 1.11 µM [2, 10] was over 4, the fold induction at 10 µM [2, 10] was over 4 and the fold induction at 1.11 µM [3, 11] was over 4. The fold induction at 1.11 µM [3, 12] was over 4, the fold induction at 1.11 µM [3, 13] was 2.01 to 4 and the fold induction at 10 µM [3, 11] was over 4. The fold induction at 10 µM [3, 12] was over 4, the fold induction at 10 µM [3, 13] was over 4 and the fold induction at 1.11 µM [3, 14] was 2.01 to 4. It also gave a fold induction at 1.11 µM [3, 15] of over 4, a fold induction at 1.11 µM [3, 16] of 2.01 to 4 and a fold induction at 10 µM [3, 14] of over 4. For the same molecule, the fold induction at 10 µM [3, 15] was over 4 and the fold induction at 10 µM [3, 16] was 2.01 to 4.
